Among the data in PubChem BioAssay (NCI) are GI50 and TGI values, retold here.

“And” between values parts separate entries of the source, which are not always exact repeats. Equal values may be shown once.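 Dose response: 5 concentrations. Exposure: 48 h. Format: 96-well plates. Endpoint: linear interpolation; highest concentration if not reached. GI50 is the concentration that inhibits growth by half. TGI denotes the concentration required for complete inhibition of growth.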 Some results are limits rather than exact numbers.

In the assay the test system is MDA-MB-468 breast. In words: NCI-60 cell line screen, 48 h.
As to `O=c1[nH]cnc2c1ccn2C1OC(CO)C(O)C1O` (stereo unspecified), the GI50 is 762 nM and the TGI was 3730 nM.

With `N#C/C(=C/NC(=S)NCc1ccccc1)C(N)=O`, the GI50 was greater than 100000 nM and the TGI was greater than 100000 nM.

As for `COc1ccc(C2C(C#N)=C(N)Oc3c2sc2c(F)cccc32)cc1` (stereo unspecified), the GI50 is 1340 nM and the TGI is 10600 nM.

For the compound `CCCN1CCN(c2ccc3nc(-c4ccc5nc(-c6ccc(C(F)(F)F)cc6)[nH]c5c4)[nH]c3c2)CC1`, the GI50 was 1780 nM and the TGI was determined as 3390 nM.

Turning to `O=C1Nc2ccccc2/C1=C\c1c[nH]c2ccc(Br)cc12`, the GI50 was 1620 nM and the TGI is 3760 nM.

As to `CCN(CC)c1ccc(/C=N/NC(=O)c2ccc(S(C)(=O)=O)cc2)c(O)c1`, the GI50 was 250 nM and the TGI was found to be 1270 nM.

Consider `Clc1ccc(Nc2nnc(CNc3ccccc3)c3ccccc23)cc1`, for which the GI50 was 1900 nM and the TGI was found to be 11500 nM.

With `COc1cc(C2CC(c3cccc(Nc4ccnc5cc(Cl)ccc45)c3)=NN2C=O)cc(OC)c1OC` (stereo unspecified), the GI50 was 293 nM and the TGI worked out at 1070 nM.

Consider `C#C[C@]1(O)CC[C@H]2[C@@H]3CC=C4c5sc(Nc6ccc(OC)nc6)nc5CC[C@]4(C)[C@H]3CC[C@@]21C`, for which the GI50 is 1460 nM and the TGI amounted to 3530 nM.

For `Cn1cc(-c2nonc2-c2cn(C)c3ccc(F)cc23)c2ccccc21`, the GI50 is 515 nM and the TGI was greater than 84000 nM.

On to `CCN1C(C)(C)CC(Oc2ccc(C(=O)Nc3ccc(NC(=O)Nc4cc(C(C)(C)C)on4)cc3)nc2)CC1(C)C`, for which the GI50 is 3210 nM and the TGI was determined as 8950 nM.

`C=CCNCCN1C(=O)c2ccc3c4c(ccc(c24)C1=O)C(=O)N(CCNCC=C)C3=O`: the GI50 is 466 nM and the TGI was determined as 1160 nM.

`CN1N=C(N)c2cn(C3OC(COP(=O)(O)O)C(O)C3O)c3ncnc1c23` (stereo unspecified): the GI50 is 205 nM and the TGI is 3050 nM.

As for `Clc1ccc(CNc2ccc3nc(CCC4CCCCC4)[nH]c3c2)cc1`, the GI50 was 1570 nM and the TGI was found to be 3470 nM.

As for `O=c1oc2ccc(Br)cc2c(=O)n1-c1ccc(Br)cc1F`, the GI50 is 819 nM and the TGI was 4320 nM.

On to `Cc1cc(Nc2nc(-c3ccc(F)cc3)nc3ccccc23)n[nH]1`, for which the GI50 was 2010 nM and the TGI amounted to 11300 nM.

Take `CCn1c(-c2nonc2N)nc2c(C#CC(C)(C)O)nc(CN3CCCC3)cc21`: the GI50 is 4150 nM and the TGI is greater than 25000 nM.

Consider `COc1ccc(NC(=O)Nc2ccccc2CNc2nc(Nc3ccc(OCCN4CCCC4)cc3)ncc2Cl)cc1`, for which the GI50 was 894 nM and the TGI is 1720 nM.

For the compound `C/C(=C1\SC(=NCc2cccs2)NC1=O)c1ccc2ncccc2c1`, the GI50 is 7130 nM and the TGI is greater than 25000 nM.

In the case of `C[C@H](NC(=O)c1c(N)nn2cccnc12)c1cc2cccc(C#Cc3cnn(C)c3)c2c(=O)n1-c1ccccc1`, the GI50 is 843 nM and 1460 nM; the TGI is 4550 nM and 9080 nM.

For `O=C(OCc1nc2nc(Cl)nc(N3CCOCC3)c2[nH]1)n1ccnc1`, the GI50 is 1850 nM and the TGI is 3540 nM.

For the compound `CS(=O)(=O)CCN(CC#N)Cc1ccc(-c2ccc3ncnc(Nc4ccc(OCc5cccc(F)c5)c(Cl)c4)c3c2)o1`, the GI50 was 76.7 nM and the TGI stood at 1090 nM.

In the case of `Cn1cc(C2=C(Oc3ccccc3)C(=O)NC2=O)c2ccccc21`, the GI50 is greater than 25000 nM and the TGI is greater than 25000 nM.

Consider `O=C1C(Br)=CC2C1C1C3CCC3C2(Br)C12OCCO2` (stereo unspecified), for which the GI50 is 1370 nM and the TGI turned out to be 4210 nM.

As for `COc1cc(-c2cc(/C=C3\C(=O)Nc4cc(Cl)ccc43)[nH]n2)cc(OC)c1OC`, the GI50 is 3170 nM and the TGI worked out at 18200 nM.

Consider `Oc1c(I)cc(I)cc1CNCCN(Cc1ccccn1)Cc1ccccn1`, for which the GI50 is 1670 nM and the TGI came to 4850 nM.

Consider `Cc1ccccc1N1CCN(C2=C(Cl)C(=O)c3ncccc3C2=O)CC1`, for which the GI50 is 1600 nM and the TGI was 3180 nM.

As to `Cc1ncc(C(=O)Nc2ccc(CN3CCN(C)CC3)c(C(F)(F)F)c2)cc1C#Cc1c(N)ncc2ccc(F)cc12`, the GI50 is 2820 nM and the TGI turned out to be 12000 nM.

Turning to `COc1cccc2c1C(=O)c1c(O)c3c(c(O)c1C2=O)C[C@@](O)(C(C)=O)C[C@@H]3O[C@H]1C[C@H](N)[C@H](O)[C@H](C)O1`, the GI50 is 71.6 nM and the TGI was 221 nM.

On to `CSc1nc(N)cc(Oc2ccc(-c3nc(Nc4cccc(C(F)(F)F)c4)n[nH]3)cc2)n1`, for which the GI50 is 360 nM and the TGI is 2660 nM.

In the case of `O=C(NCCCN1CCC(N2CCCCC2)CC1)C1=Cc2cc(Br)ccc2OC1`, the GI50 is 3150 nM and the TGI turned out to be 12600 nM.

With `O=C1NC(=NCc2ccccc2Br)S/C1=C\c1ccc2ncccc2c1`, the GI50 is 4220 nM and the TGI is greater than 25000 nM.

`O=C1C=CC=C[C@@H]2C(C3OCCO3)CC[C@H]12.[C-]#[O+].[C-]#[O+].[C-]#[O+].[Fe]` (stereo partly specified): the GI50 is 35200 nM and the TGI is greater than 100000 nM.
